The values that follow come from patent EP4813988A1, “AI-DESIGNED BENZODIAZEPINE DERIVATIVE AND USE THEREOF” (Shenzhen Newrosetta Biosciences Co., Ltd, priority 2024, dated 2025).

A word on the IC50: it is the concentration that inhibits the measured activity by half.

The target in assay [1] is T1, Human M2 receptor (Homo sapiens, UniProt P08172).
T1 construct: expressed in transfected cells
T1 sequence (P08172 1-466): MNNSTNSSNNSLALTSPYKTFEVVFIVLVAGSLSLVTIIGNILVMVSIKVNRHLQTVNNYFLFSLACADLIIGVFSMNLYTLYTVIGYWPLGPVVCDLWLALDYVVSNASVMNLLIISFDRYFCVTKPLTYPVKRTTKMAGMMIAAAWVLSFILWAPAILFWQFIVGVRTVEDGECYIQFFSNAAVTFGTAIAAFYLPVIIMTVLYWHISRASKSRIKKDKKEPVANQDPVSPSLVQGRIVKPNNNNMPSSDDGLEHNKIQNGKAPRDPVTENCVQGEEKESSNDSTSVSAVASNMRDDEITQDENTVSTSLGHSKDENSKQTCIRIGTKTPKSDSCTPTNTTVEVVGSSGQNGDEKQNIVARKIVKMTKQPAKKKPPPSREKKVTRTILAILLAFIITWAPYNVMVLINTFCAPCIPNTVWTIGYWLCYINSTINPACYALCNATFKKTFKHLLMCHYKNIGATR
The assay can be described thus: FLIPR Calcium 6 assay for inhibitory activity against Human M2 receptor in CHO cells. The assay is classed as cell-based. As to conditions: for M3/M2 selectivity: IC50 ratio of M3/M2. As for the experimental part:
(§1) CHO cell lines stably expressing Human M2 and Human M3, respectively, were used. The effects of the compounds on the activity of the Human M2 and Human M3 receptors were determined using the FLIPR Calcium 6 Assay Kit. The effects of the test substances on Human M2 and Human M3 were studied according to changes in cell signal intensity, and the corresponding concentration-response curves were calculated.
(§2) • 1. The Human M2-CHO and Human M3-CHO cell lines were cultured in an F-12 culture medium containing 10% fetal bovine serum (AusGeneX, FBS500-S) and 0.2 mg/mL Hygromycin B (Solarbio, H8080-1g) at a culture temperature of 37 °C with 5% carbon dioxide. • 2. Cell passage: The old culture medium was removed in a biosafety cabinet, and the cells were washed once with PBS; 1 mL of 0.25% Trypsin-EDTA (Gibco, 25200-072) solution was then added; and the cells were incubated at 37 °C for about 2 min. When the cells were detached from the bottom of the dish, about 5 mL of complete culture medium pre-heated at 37 °C was added. The cell suspension was gently pipetted to separate the aggregated cells. The cell suspension was transferred to a sterile centrifuge tube and centrifuged at 1000 rpm for 5 min. • 3. In order to maintain the physiological activity of the cells, the experimental cell confluence was controlled at about 80% as observed under an inverted microscope (Olympus, CKX53).
(§3) • 1. Cell plating: Human M2-CHO and Human M3-CHO cells were digested, collected, resuspended, counted, and then seeded into a 384-well cell plate (Corning, 3764) at a density of 1.2 × 10^4 cells/25 µL /well; the cell plate was then incubated in a 5% CO2 incubator at 37 °C for about 16-20 h. • 2. On day 2, an Assay Buffer (20 mM HEPES + 1× HBSS) was prepared according to the instructions of the FLIPR Calcium 6 Assay Kit (Molecular Devices, R8191); after 20× Component A was freeze-thawed to room temperature, it was diluted to 1× loading buffer with the Assay buffer, and placed at room temperature for later use. • 3. The culture medium in the cell plate was removed, 35 µL of the 1× loading buffer described above was quickly added to each well, and the cell plate was centrifuged using a microplate low speed centrifuge and then incubated in the dark at 37 °C for 120 min. • 4. The working solutions of a positive compound and the test compounds were each prepared in a 96-well dilution plate (Biao Sen, P-0.6-BSA-96-S); 5 µL of each solution was transferred to the corresponding cell wells; and the cell plate was incubated at 37 °C for 30 min in the dark. • 5. An agonist working solution was prepared and transferred to a 384-well compound plate (Corning, 264573) at 20 µL /well. • 6. The cell plate (Corning, 3764), the 384-well compound plate (Corning, 264573), and pipette tips were placed at corresponding positions of the FLIPR instrument; 10 µL of the agonist diluted in step 5 was added to each experimental well using the FLIPR® Penta; and data were collected at the wavelength of 515-575 nm. • 7. The signal values were plotted against the compound concentrations, and based on a non-linear regression method using the GraphPad Prism software, the curves were fit, and the IC50 values were calculated.
(§4) • 1) Z′ factor = 1−3 × (SDMax+SDMin)/(AVGMax−AVGMin) [formula] • 2) CV Max = (SDMax/AVGMax) × 100% [formula] • 3) CV Min = (SDMin/AVGMin) × 100% [formula] • 4) Signal−to−noise ratio S/B = AVGMax /AVGMin [formula] • 5) The IC50 values of the compounds were calculated using the GraphPad Prism non-linear fitting formula: Y = Bottom + (Top−Bottom)/(1+10^(∧)((LogIC50−X)×HillSlope)) [formula] • 6) % inhibition rate formula: [formula] • Ratiopositive: mean value of positive control. • Ratiovehicle: mean value of negative control (0.1% DMSO).
(§5) According to the experimental method described above, the inhibitory activity of the compounds disclosed herein against Human M2 and M3 receptors was assayed with AFDX-116 as a positive control compound. Table 3. […]

Assay [2] concerns the target T2, Human M3 receptor (Homo sapiens, UniProt P20309).
T2 construct: expressed in transfected cells
Put plainly: FLIPR Calcium 6 assay for inhibitory activity against Human M3 receptor in CHO cells. Conditions: FLIPR calcium signal, antagonist mode. The assay is classed as cell-based. As for the experimental part: as §1, §2, §3, §4, §5

The test system of assay [3] is guinea pig myopia model. Put plainly: In vivo efficacy evaluation in form-deprivation guinea pig myopia model (diopter by infrared photorefractor). Conditions: 20 µL/eye once daily; for slowing down the progression of refraction decrease: 0.5 wt% eye drops, versus negative control group. The source says: Objective: To evaluate the inhibitory effect of compound 2 on the progression of myopia (refractive error) in a guinea pig myopia model. Young guinea pigs have inherent refractive hyperopia, which gradually progresses towards emmetropization during eye development. Form deprivation accelerates the process of emmetropization. In this test, the delaying effect of compound 2 on the process of refractive emmetropization in modeled young guinea pigs was investigated.
Sample preparation: 0.5 wt% compound 2 eye drops were formulated with compound 2 and a 10 wt% aqueous sulfobutylether-beta-cyclodextrin solution.
Grouping: The guinea pigs were evenly divided into 3 groups according to the refractive value of the right eye: a negative control group, a model control group, and a compound 2 group.
Modeling: Animals other than the negative control group were modeled. A myopia model was made by suturing the eyelid of the right eye. The modeling procedure is as follows: After hair removal was performed on the right eyes of all animals, the right eyes were sutured in a U-shape to achieve form deprivation and accelerate the process of emmetropization. The guinea pigs were fed for 28 days after the first suture.
Administration: Starting from the day of suture modeling, eye drops were administered to the right eyes of the animals in each group according to settings (the samples for administration are shown in Table 4) at 20 µL /eye once daily for 28 consecutive days. Table 4. Administration and dosage design for each group
Test: Diopter was measured on day 15 and day 29 after modeling using an infrared photorefractor (ST-PR.01, Striatech).

Where [4] appears, read: Human M2-CHO cells, FLIPR calcium signal, antagonist mode, read-out: M2 IC50.

Like-named read-outs stand apart in the source and are kept apart here.

T2 sequence (P20309 whole entry): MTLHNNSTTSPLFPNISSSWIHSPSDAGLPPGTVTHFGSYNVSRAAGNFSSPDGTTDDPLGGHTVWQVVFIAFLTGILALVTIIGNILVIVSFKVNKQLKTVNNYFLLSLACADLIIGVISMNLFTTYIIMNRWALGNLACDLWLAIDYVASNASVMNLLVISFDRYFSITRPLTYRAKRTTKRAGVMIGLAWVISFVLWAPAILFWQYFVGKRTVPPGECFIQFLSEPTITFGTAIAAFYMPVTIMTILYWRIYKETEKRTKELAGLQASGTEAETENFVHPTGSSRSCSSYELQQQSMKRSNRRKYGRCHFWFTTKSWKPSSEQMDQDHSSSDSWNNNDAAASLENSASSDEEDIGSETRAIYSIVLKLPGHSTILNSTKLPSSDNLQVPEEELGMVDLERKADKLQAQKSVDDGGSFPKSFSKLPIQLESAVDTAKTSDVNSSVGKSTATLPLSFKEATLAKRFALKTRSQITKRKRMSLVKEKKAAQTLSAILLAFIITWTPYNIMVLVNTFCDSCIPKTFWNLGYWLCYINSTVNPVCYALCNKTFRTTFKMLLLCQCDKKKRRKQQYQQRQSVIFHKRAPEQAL

Turning to `CCN(CC)CC1CCCCN1CC(=O)N1c2ccccc2C(=O)Nc2cccnc21` (stereo not drawn) [AFDX-116, reference compound], the IC50 came out at 166 nM in assay [1] (setting [4]) and 2100 nM in assay [2]. For the same compound, the M3/M2 selectivity in assay [1] is 12.
The corresponding values for `CCN(CCN(C)C1CCC2(CCCCC2)CC1)C(=O)CCC(=O)N1c2ccccc2C(=O)Nc2cccnc21` [Compound 1] are 3.23 nM, 611 nM and 189.
Consider `CCN(CCN1CCC2(CCCCC2)CC1)C(=O)CCC(=O)N1c2ccccc2C(=O)Nc2cccnc21` [Compound 2], for which the results for the IC50 in assay [1] (setting [4]) and in assay [2] were 0.733 nM and 55.9 nM, respectively. Moreover, the M3/M2 selectivity in assay [1] amounted to 76. Further, the “diopter (refractive value)” value in assay [3] (day 15, 0.5 wt% compound 2 eye drops, right eye, form deprivation by eyelid suture) is on record as “increase in the positive refractive value”. Further, the “slowing down the progression of refraction decrease” value in assay [3] (day 15 of administration) was “superior to the negative control group”; in assay [3] (day 29 of administration), “comparable to the negative control group”.
As to `CCN(CCN(C)CC1CCC2(CCCCC2)CC1)C(=O)CCC(=O)N1c2ccccc2C(=O)Nc2cccnc21` [Compound 3], the figures for the IC50 in assay [1] (setting [4]) and in assay [2] were 6.54 nM and 6820 nM, respectively. The M3/M2 selectivity in assay [1] turned out to be 1041.
The corresponding values for `CCN(CCN(C)CC12CCC(CC1)C2)C(=O)CCC(=O)N1c2ccccc2C(=O)Nc2cccnc21` [Compound 4] are 1.49 nM, 132 nM and 88.6.
With `CCN(CCN1C2CCCC1CC2)C(=O)CCC(=O)N1c2ccccc2C(=O)Nc2cccnc21` [Compound 5], in assay [1], the IC50 stood at 2.74 nM and the M3/M2 selectivity came to 245.6. Also, the IC50 in assay [2] was determined as 673 nM.
On to `CCN(CCN(C)C12CC3CC(CC(C3)C1)C2)C(=O)CCC(=O)N1c2ccccc2C(=O)Nc2cccnc21` [Compound 6], for which the IC50 was 0.863 nM in assay [1] (setting [4]) and 723 nM in assay [2]. Further, the M3/M2 selectivity in assay [1] was 838.
The corresponding values for `CCN(CCN1CC2CC2C1)C(=O)CCC(=O)N1c2ccccc2C(=O)Nc2cccnc21` (stereo not drawn) [Compound 7] are 0.714 nM, 54.1 nM and 75.87.
The corresponding values for `CCN(CCN1CCC2(CCC2)CC1)C(=O)CCC(=O)N1c2ccccc2C(=O)Nc2cccnc21` [Compound 8] are 0.896 nM, 141 nM and 157.7.
`CCN(CCN(C)C1CC2(CCC2)C1)C(=O)CCC(=O)N1c2ccccc2C(=O)Nc2cccnc21` [Compound 9]: the IC50 in assay [1] (setting [4]) came to 2.98 nM; in assay [2], 881 nM. Further, the M3/M2 selectivity in assay [1] was 295.7.
The corresponding values for `CCN(CCN(C)C1CC2(CCCCC2)C1)C(=O)CCC(=O)N1c2ccccc2C(=O)Nc2cccnc21` [Compound 10] are 2.58 nM, 1970 nM and 762.
The corresponding values for `CCN(CCN(C)C1CCC2(CCCC2)C1)C(=O)CCC(=O)N1c2ccccc2C(=O)Nc2cccnc21` (stereo not drawn) [Compound 11] are 1.86 nM, 277 nM and 149.
Turning to `CCN(CCN(C)C1CC2CCCC2C1)C(=O)CCC(=O)N1c2ccccc2C(=O)Nc2cccnc21` (stereo not drawn) [Compound 12], the IC50 in assay [1] (setting [4]) was 1.82 nM; in assay [2] it was 184 nM. For the same compound, in assay [1], the M3/M2 selectivity is 101.
The corresponding values for `CCN(CCN(C)C1C2CCCC21)C(=O)CCC(=O)N1c2ccccc2C(=O)Nc2cccnc21` (stereo not drawn) [Compound 13] are 5.46 nM, 260 nM and 47.6.
The corresponding values for `O=C1Nc2cccnc2N(C(=O)CCC(=O)N2CCCCC2CN2CCC3(CCCCC3)CC2)c2ccccc21` (stereo not drawn) [Compound 14] are 0.833 nM, 328 nM and 394.1.
The corresponding values for `O=C1Nc2cccnc2N(C(=O)CCC(=O)N2CCCC2CN2CCC3(CCCCC3)CC2)c2ccccc21` (stereo not drawn) [Compound 15] are 1.14 nM, 247 nM and 217.6.
